{"source": "patent US20070293514A1", "about": "“Triazolopyrimidines” (priority 2003, published 2007)", "assay": "logP by HPLC (EEC Directive 79/831 Annex V. A8, gradient method)", "assay_type": "physicochemical", "conditions": "acetonitrile/0.1% aqueous phosphoric acid", "data": [{"smiles": "CCC(C)c1c(Cl)nc2ncnn2c1Cl", "note": "(stereo not drawn) [5,7-dichloro-6-sec-butyl[1,2,4]triazolo[1,5-a]pyrimidine]", "values": [{"measurement": "chromatographic logP", "value": 2.4}]}, {"smiles": "CCC(C)c1c(O)n2ncnc2[nH]c1=O", "note": "(stereo not drawn) [6-sec-butyl-7-hydroxy[1,2,4]triazolo[1,5-a]pyrimidin-5(4H)-one]", "values": [{"measurement": "chromatographic logP", "value": 0.7}]}, {"smiles": "C[Si](C)(C)CNc1c(-c2ccc(F)cc2Cl)c(Cl)nc2ncnn12", "note": "[Example 1]", "values": [{"measurement": "chromatographic logP", "value": 3.61}]}, {"smiles": "CC(Nc1c(-c2c(F)cc(F)cc2F)c(Cl)nc2ncnn12)[Si](C)(C)C", "note": "(stereo not drawn) [Example 2]", "values": [{"measurement": "chromatographic logP", "value": 3.71}]}, {"smiles": "C[Si](C)(C)CNc1c(-c2c(F)cccc2Cl)c(Cl)nc2ncnn12", "note": "[Example 3]", "values": [{"measurement": "logP", "value": 3.43}]}, {"smiles": "C[Si](C)(C)CNc1c(-c2c(F)cc(F)cc2F)c(Cl)nc2ncnn12", "note": "[Example 4]", "values": [{"measurement": "chromatographic logP", "value": 3.39}]}, {"smiles": "CC(Nc1c(-c2c(F)cccc2Cl)c(Cl)nc2ncnn12)[Si](C)(C)C", "note": "(stereo not drawn) [Example 5]", "values": [{"measurement": "logP", "value": 3.79}]}, {"smiles": "CC(Nc1c(-c2ccc(F)cc2Cl)c(Cl)nc2ncnn12)[Si](C)(C)C", "note": "(stereo not drawn) [Example 6]", "values": [{"measurement": "logP", "value": 3.95}]}, {"smiles": "CC(Nc1c(-c2ccccc2Cl)c(Cl)nc2ncnn12)[Si](C)(C)C", "note": "(stereo not drawn) [Example 7]", "values": [{"measurement": "logP", "value": 3.83}]}, {"smiles": "CC(C)c1nc2nc(Cl)c(-c3ncc(C(F)(F)F)cc3Cl)c(NC[Si](C)(C)C)n2n1", "note": "[Example 8]", "values": [{"measurement": "logP", "value": 4.51}]}, {"smiles": "CC(C)c1nc2nc(Cl)c(-c3ncncc3F)c(NC(C)[Si](C)(C)C)n2n1", "note": "(stereo not drawn) [Example 9]", "values": [{"measurement": "logP", "value": 3.61}]}, {"smiles": "CC(Nc1c(-c2ncccc2C(F)(F)F)c(Cl)nc2ncnn12)[Si](C)(C)C", "note": "(stereo not drawn) [Example 10]", "values": [{"measurement": "logP", "value": 3.06}]}, {"smiles": "CC(Nc1c(-c2c(F)cccc2Cl)c(Cl)nc2nc(C3CC3)nn12)[Si](C)(C)C", "note": "(stereo not drawn) [Example 11]", "values": [{"measurement": "logP", "value": 4.65}]}, {"smiles": "C[Si](C)(C)CNc1c(-c2c(F)cccc2Cl)c(Cl)nc2nc(C3CC3)nn12", "note": "[Example 12]", "values": [{"measurement": "logP", "value": 4.22}]}, {"smiles": "C[Si](C)(C)CNc1c(-c2cc(F)ccc2F)c(Cl)nc2nc(C3CC3)nn12", "note": "[Example 13]", "values": [{"measurement": "chromatographic logP", "value": 3.99}]}, {"smiles": "CC(Nc1c(-c2cc(F)ccc2F)c(Cl)nc2nc(C3CC3)nn12)[Si](C)(C)C", "note": "(stereo not drawn) [Example 14]", "values": [{"measurement": "chromatographic logP", "value": 4.35}]}, {"smiles": "CC(C)c1nc2nc(Cl)c(-c3cc(F)ccc3F)c(NC(C)[Si](C)(C)C)n2n1", "note": "(stereo not drawn) [Example 15]", "values": [{"measurement": "chromatographic logP", "value": 4.58}]}, {"smiles": "CC(C)c1nc2nc(Cl)c(-c3cc(F)ccc3F)c(NC[Si](C)(C)C)n2n1", "note": "[Example 16]", "values": [{"measurement": "chromatographic logP", "value": 4.21}]}, {"smiles": "Cc1nc2nc(Cl)c(-c3cc(F)ccc3F)c(NC(C)[Si](C)(C)C)n2n1", "note": "(stereo not drawn) [Example 17]", "values": [{"measurement": "chromatographic logP", "value": 3.73}]}, {"smiles": "Cc1nc2nc(Cl)c(-c3cc(F)ccc3F)c(NC[Si](C)(C)C)n2n1", "note": "[Example 18]", "values": [{"measurement": "chromatographic logP", "value": 3.4}]}, {"smiles": "CC(Nc1c(-c2ncncc2F)c(Cl)nc2nc(C3CC3)nn12)[Si](C)(C)C", "note": "(stereo not drawn) [Example 19]", "values": [{"measurement": "logP", "value": 2.99}]}, {"smiles": "C[Si](C)(C)CNc1c(-c2ccccc2Cl)c(Cl)nc2nc(C3CC3)nn12", "note": "[Example 20]", "values": [{"measurement": "logP", "value": 4.23}]}, {"smiles": "CC(Nc1c(-c2ccccc2Cl)c(Cl)nc2nc(C3CC3)nn12)[Si](C)(C)C", "note": "(stereo not drawn) [Example 21]", "values": [{"measurement": "logP", "value": 4.66}]}, {"smiles": "C[Si](C)(C)CNc1c(-c2ncncc2F)c(Cl)nc2nc(C3CC3)nn12", "note": "[Example 22]", "values": [{"measurement": "logP", "value": 3.02}]}, {"smiles": "CC(Nc1c(-c2ncncc2Cl)c(Cl)nc2ncnn12)[Si](C)(C)C", "note": "(stereo not drawn) [Example 23]", "values": [{"measurement": "logP", "value": 2.70}]}, {"smiles": "C[Si](C)(C)CNc1c(-c2ncncc2Cl)c(Cl)nc2ncnn12", "note": "[Example 24]", "values": [{"measurement": "logP", "value": 2.44}]}, {"smiles": "CCC(C)c1c(Cl)nc2ncnn2c1NC[Si](C)(C)C", "note": "(stereo not drawn) [Example 26, 5-chloro-6-sec-butyl-7-trimethylsilylmethylamino[1,2,4]triazolo[1,5-a]pyrimidine]", "values": [{"measurement": "chromatographic logP", "value": 3.34}]}, {"smiles": "Cc1nc2nc(Cl)c(-c3ncncc3F)c(NC[Si](C)(C)C)n2n1", "note": "[Example 27]", "values": [{"measurement": "logP", "value": 2.43}]}, {"smiles": "Cc1nc2nc(Cl)c(-c3ncncc3F)c(NC(C)[Si](C)(C)C)n2n1", "note": "(stereo not drawn) [Example 28]", "values": [{"measurement": "logP", "value": 2.73}]}, {"smiles": "C[Si](C)(C)CNc1c(-c2cc(F)ccc2F)c(Cl)nc2ncnn12", "note": "[Example 39]", "values": [{"measurement": "chromatographic logP", "value": 3.26}]}, {"smiles": "CC(Nc1c(-c2cc(F)ccc2F)c(Cl)nc2ncnn12)[Si](C)(C)C", "note": "(stereo not drawn) [Example 40]", "values": [{"measurement": "chromatographic logP", "value": 3.57}]}, {"smiles": "C[Si](C)(C)CNc1c(-c2ncncc2F)c(Cl)nc2ncnn12", "note": "[Example 41]", "values": [{"measurement": "logP", "value": 2.28}]}, {"smiles": "CC(Nc1c(-c2ncncc2F)c(Cl)nc2ncnn12)[Si](C)(C)C", "note": "(stereo not drawn) [Example 42]", "values": [{"measurement": "logP", "value": 2.57}]}]}
